#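 Following 48 hours of exposure in 96-well plates, responses at five concentrations were used to interpolate endpoints linearly. GI50 = concentration required for 50% inhibition of growth.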 Active and inactive are the calls of the source. Cut-off read from the data, not from the text of the source: active = GI50 up to about 1.1 µM and inactive = higher.
# How the values were obtained:
# Assay in all cases: NCI-60 cell line screen, 48 h
# HOP-92 = test system: HOP-92
# KM12 = test system: KM12
# SK-MEL-5 = test system: SK-MEL-5
# SR = test system: SR
# U-251 = test system: U-251
# HCC 2998 = test system: HCC 2998
# SN12C = test system: SN12C
# COLO 205 = test system: COLO 205
# SK-MEL-28 = test system: SK-MEL-28
# MOLT-4 = test system: MOLT-4
# A549 = test system: A549
# NCI-H23 = test system: NCI-H23
# K562 = test system: K562
# IGROV-1 = test system: IGROV-1
# SNB-75 = test system: SNB-75
# SNB-19 = test system: SNB-19
# MDA-MB-231 = test system: MDA-MB-231
# MDA-N = test system: MDA-N
# DU-145 = test system: DU-145
# T47D = test system: T47D
Structure (SMILES),GI50 (HOP-92),GI50 (KM12),GI50 (SK-MEL-5),GI50 (SR),GI50 (U-251),GI50 (HCC 2998),GI50 (SN12C),GI50 (COLO 205),GI50 (SK-MEL-28),GI50 (MOLT-4),GI50 (A549),GI50 (NCI-H23),GI50 (K562),GI50 (IGROV-1),GI50 (SNB-75),GI50 (SNB-19),GI50 (MDA-MB-231),GI50 (MDA-N),GI50 (DU-145),GI50 (T47D)
CC(=O)Nc1ccc(/C=C/C(=O)c2sc(-n3nc(-c4ccccc4)cc3-c3ccccc3)nc2C)cc1,> 10 µM (inactive),64.9 µM (inactive),95.3 µM (inactive),> 10 µM (inactive),> 10 µM (inactive),> 10 µM (inactive),> 10 µM (inactive),> 10 µM (inactive),> 10 µM (inactive),> 10 µM (inactive),> 10 µM (inactive),> 10 µM (inactive),> 10 µM (inactive),> 10 µM (inactive),> 10 µM (inactive),> 10 µM (inactive),–,–,–,–
Cn1nc(-c2ccccc2)c2c(/C=C/c3ccccc3)onc2c1=O,33 µM (inactive),> 100 µM (inactive),> 100 µM (inactive),95.7 µM (inactive),64 µM (inactive),83.6 µM (inactive),> 100 µM (inactive),> 100 µM (inactive),> 100 µM (inactive),> 100 µM (inactive),> 100 µM (inactive),> 100 µM (inactive),> 100 µM (inactive),> 100 µM (inactive),27 µM (inactive),67.3 µM (inactive),–,–,–,–
C/C(=N/NC(=S)Nc1cccc(C)c1)c1ccccn1,1.17 µM (inactive),0.141 µM (active),0.061 µM (active),< 0.01 µM (active),0.0208 µM (active),1.91 µM (inactive),0.226 µM (active),< 0.01 µM (active),1.71 µM (inactive),< 0.01 µM (active),1.87 µM (inactive),< 0.01 µM (active),< 0.01 µM (active),< 0.01 µM (active),2.11 µM (inactive),0.977 µM (active),< 0.01 µM (active),1.35 µM (inactive),2.19 µM (inactive),–
CCOc1ccc2nc(NC(=O)C(=O)C(c3cnc4ccccc4n3)[N+](=O)[O-])sc2c1 (configuration not stated),> 100 µM (inactive),> 100 µM (inactive),> 100 µM (inactive),–,–,> 100 µM (inactive),> 100 µM (inactive),–,–,53.1 µM (inactive),> 100 µM (inactive),74.5 µM (inactive),98.2 µM (inactive),41.4 µM (inactive),> 100 µM (inactive),69.2 µM (inactive),> 100 µM (inactive),> 100 µM (inactive),–,> 100 µM (inactive)
NC1CC(n2ccc(=O)[nH]c2=O)OC1C(O)CO (configuration not stated),> 100 µM (inactive),> 100 µM (inactive),> 100 µM (inactive),> 100 µM (inactive),> 100 µM (inactive),> 100 µM (inactive),> 100 µM (inactive),> 100 µM (inactive),> 100 µM (inactive),> 100 µM (inactive),> 100 µM (inactive),> 100 µM (inactive),> 100 µM (inactive),> 100 µM (inactive),> 100 µM (inactive),> 100 µM (inactive),–,–,–,–
Cc1cccc(C)c1NC(=O)C(=O)CC(=O)CO,> 100 µM (inactive),> 100 µM (inactive),> 100 µM (inactive),> 100 µM (inactive),> 100 µM (inactive),> 100 µM (inactive),> 100 µM (inactive),> 100 µM (inactive),> 100 µM (inactive),> 100 µM (inactive),> 100 µM (inactive),> 100 µM (inactive),> 100 µM (inactive),> 100 µM (inactive),73.5 µM (inactive),> 100 µM (inactive),–,–,–,–
O=C(O)CN(CC(=O)O)Cc1cc(C#Cc2ccc(C#Cc3ccccc3)cc2)cc(CN(CC(=O)O)CC(=O)O)n1,22.9 µM (inactive),16.8 µM (inactive),27.3 µM (inactive),18.2 µM (inactive),5.11 µM (inactive),4.63 µM (inactive),19.7 µM (inactive),11.5 µM (inactive),> 52 µM (inactive),8.91 µM (inactive),29.1 µM (inactive),32.7 µM (inactive),33 µM (inactive),18.7 µM (inactive),31.6 µM (inactive),5.75 µM (inactive),7.11 µM (inactive),35.6 µM (inactive),17.3 µM (inactive),–
COC(=O)[C@@](NC(=O)OCc1ccccc1)([C@H](C)O)C(F)(F)F,> 100 µM (inactive),> 100 µM (inactive),> 100 µM (inactive),50.1 µM (inactive),> 100 µM (inactive),> 100 µM (inactive),–,> 100 µM (inactive),> 100 µM (inactive),> 100 µM (inactive),> 100 µM (inactive),> 100 µM (inactive),> 100 µM (inactive),> 100 µM (inactive),> 100 µM (inactive),> 100 µM (inactive),> 100 µM (inactive),–,> 100 µM (inactive),> 100 µM (inactive)
CC1(C)N=C2C(=O)c3c([nH]c4ccccc34)[C@]3(C)CCC1CC23 (some centres not stated),> 6.25 µM (inactive),> 6.25 µM (inactive),> 6.25 µM (inactive),> 6.25 µM (inactive),> 6.25 µM (inactive),> 6.25 µM (inactive),> 6.25 µM (inactive),> 6.25 µM (inactive),> 6.25 µM (inactive),> 6.25 µM (inactive),> 6.25 µM (inactive),> 6.25 µM (inactive),> 6.25 µM (inactive),> 6.25 µM (inactive),> 6.25 µM (inactive),–,> 6.25 µM (inactive),> 6.25 µM (inactive),> 6.25 µM (inactive),–
CC(C)OP(=O)(OC(C)C)/C(=N/Nc1ccc([N+](=O)[O-])cc1)NCCN/C(=N\Nc1ccc([N+](=O)[O-])cc1)P(=O)(OC(C)C)OC(C)C,3.35 µM (inactive),3.8 µM (inactive),6.22 µM (inactive),4.03 µM (inactive),3.3 µM (inactive),5.4 µM (inactive),4.07 µM (inactive),3.93 µM (inactive),31.3 µM (inactive),3.31 µM (inactive),3.72 µM (inactive),2.31 µM (inactive),3.29 µM (inactive),2.31 µM (inactive),5 µM (inactive),3.35 µM (inactive),–,–,–,–
Cc1c(Cl)ccc2c1NC(=O)C2(O)CC(=O)c1ccc(Cl)cc1 (configuration not stated),69.2 µM (inactive),51.2 µM (inactive),53.3 µM (inactive),13.9 µM (inactive),60.8 µM (inactive),> 42 µM (inactive),26.8 µM (inactive),32.4 µM (inactive),> 94.4 µM (inactive),17.7 µM (inactive),> 100 µM (inactive),54.5 µM (inactive),22.8 µM (inactive),> 100 µM (inactive),76.2 µM (inactive),97.3 µM (inactive),–,–,–,–
COCN(C)c1nc(N(C)C)nc(N(C)C)n1,> 100 µM (inactive),> 100 µM (inactive),> 100 µM (inactive),> 100 µM (inactive),> 100 µM (inactive),> 100 µM (inactive),> 100 µM (inactive),> 100 µM (inactive),> 100 µM (inactive),> 100 µM (inactive),> 100 µM (inactive),> 100 µM (inactive),> 100 µM (inactive),> 100 µM (inactive),> 100 µM (inactive),> 100 µM (inactive),–,–,–,–
CCNC(=O)COc1ccc(Br)cc1Br,29 µM (inactive),> 100 µM (inactive),86.5 µM (inactive),> 100 µM (inactive),> 100 µM (inactive),> 100 µM (inactive),> 100 µM (inactive),> 100 µM (inactive),> 100 µM (inactive),> 100 µM (inactive),> 100 µM (inactive),> 100 µM (inactive),> 100 µM (inactive),> 100 µM (inactive),> 100 µM (inactive),54.7 µM (inactive),–,–,–,–
Cc1ccc(NC(=O)CC(=O)N2N=C(N(CCC#N)c3cccc(C)c3)CC2c2ccccc2)cc1 (configuration not stated),> 100 µM (inactive),> 100 µM (inactive),> 100 µM (inactive),> 100 µM (inactive),> 100 µM (inactive),> 100 µM (inactive),> 100 µM (inactive),> 100 µM (inactive),> 100 µM (inactive),> 100 µM (inactive),> 100 µM (inactive),> 100 µM (inactive),> 100 µM (inactive),> 100 µM (inactive),> 100 µM (inactive),> 100 µM (inactive),–,–,–,–
Cc1ccc2ccccc2c1CC1S(=O)(=O)OCCOS1(=O)=O,–,12.1 µM (inactive),12.8 µM (inactive),7.64 µM (inactive),12 µM (inactive),4.15 µM (inactive),10.1 µM (inactive),2.43 µM (inactive),16 µM (inactive),6.28 µM (inactive),13.5 µM (inactive),16 µM (inactive),9.12 µM (inactive),–,–,12.7 µM (inactive),13.6 µM (inactive),9.48 µM (inactive),11.9 µM (inactive),–
O=c1c(Cl)cc2nc3ccccc3sc-2c1Cl,–,17.6 µM (inactive),2.92 µM (inactive),4.57 µM (inactive),17.6 µM (inactive),14.1 µM (inactive),17 µM (inactive),18.5 µM (inactive),18.1 µM (inactive),3.61 µM (inactive),18.7 µM (inactive),11 µM (inactive),6.85 µM (inactive),13.6 µM (inactive),16.2 µM (inactive),17 µM (inactive),5.78 µM (inactive),–,12.9 µM (inactive),5 µM (inactive)

# Source: ChEMBL document CHEMBL1201862, “PubChem BioAssay data set” (2004)
